Measured values as given in PMC7904559, “QSAR and molecular docking for the search of AOX inhibitors: a rational drug discovery approach” (Journal of Computer-Aided Molecular Design, 2020).
Like-named read-outs stand apart in the source and are kept apart here.

What was measured:
[1] = target: trypanosome alternative oxidase (TAO) (Trypanosoma brucei brucei, UniProt Q26710); experiment: biochemical
cytochrome bc1 complex = conditions: cited from earlier work
T. vivax = conditions: T. vivax-infected mouse; single intramuscular dose of 50 mg/kg or 6 mg/kg on 4 consecutive days; cited from earlier work
[2] = parameters: method as in PMID 30693533; conditions: cited from earlier work
[3] = target: alternative oxidase of Trypanosoma brucei (TAO); conditions: cited from earlier work; for pIC50 Exp.: training set, calculated as -log IC50
[4] = IC50, recombinant AOX expressed in E. coli membranes, mean ± SD of n = 3 isolations, 37 °C, pH 7.4, 1.25 mM NADH, 1 mM KCN
[5] = pIC50 Exp, external validation set, -log IC50 of values measured by respirometry
[6] = wild type TAO, Table 2, read-out: IC50
[7] = read-out: IC50 (50% inhibitory concentration), against TAO

Chain of trypanosome alternative oxidase (TAO) (Q26710 whole entry): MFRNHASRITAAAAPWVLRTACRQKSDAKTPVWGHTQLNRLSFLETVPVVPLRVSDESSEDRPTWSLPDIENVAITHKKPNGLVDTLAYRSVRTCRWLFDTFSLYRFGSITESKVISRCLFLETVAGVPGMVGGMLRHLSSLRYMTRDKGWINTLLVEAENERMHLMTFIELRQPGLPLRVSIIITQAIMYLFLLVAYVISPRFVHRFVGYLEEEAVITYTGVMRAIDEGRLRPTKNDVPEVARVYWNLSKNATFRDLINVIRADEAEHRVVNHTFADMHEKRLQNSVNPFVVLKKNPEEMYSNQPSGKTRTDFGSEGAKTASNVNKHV

Compound	IC50 [3, 7] [nM]	pIC50 Exp. [3]	other results
CC(/C=C/[C@@]1(C)[C@H](C)CCC(=O)[C@@H]1C)=C\Cc1c(O)c(Cl)c(C)c(C=O)c1O [Ascochlorin]			IC50 [1, 4]: ~7 nM; IC50 [1, 5]: 7.4 nM; inhibition of cytochrome bc1 complex (cytochrome bc1 complex): potent inhibitor
C/C(=C\Cc1c(O)c(Cl)c(C)c(C=O)c1O)CC/C=C(\C)[C@@H]1CC(=O)C(C)(C)O1 [Ascofuranone]			treatment outcome (T. vivax): successful treatment; blood clearance [2]: rapid; oral bioavailability [2]: low; inhibition of mammalian cytochrome bc1 complex (cytochrome bc1 complex; mammalian, concluded from survival of mice following AF treatment): not an effective inhibitor
CC(C)=CCC/C(C)=C/Cc1c(O)c(Cl)c(C)c(C=O)c1O [Colletochlorin B]			IC50 [3, 6]: 0.2 nM
CC(C)=CCc1c(O)c(Cl)c(C)c(C=O)c1O [Colletochlorin D]			IC50 [1, 5]: 33 nM
C/C(=C\Cc1c(O)c(Cl)c(C)c(C=O)c1O)CC/C=C(\C)COC(=O)C(C)(C)C [Compound 1]	0.4	9.398	
C/C(=C\CC/C(C)=C/Cc1c(O)c(Cl)c(C)c(C=O)c1O)CO [Compound 2]	1.2	8.921	
CC(=O)OC(C)/C(C)=C/CC/C(C)=C/Cc1c(O)c(Cl)c(C)c(C=O)c1O (stereo not shown) [Compound 3]	1.4	8.854	
C/C=C/c1c(O)c(Cl)c(C)c(C=O)c1O [Compound 7a]		7.000	
CCC/C=C/c1c(O)c(Cl)c(C)c(C=O)c1O [Compound 7b]	3.8	8.420	
Cc1c(Cl)c(O)c(CCCCCCCCO)c(O)c1C=O [Compound 11]	6	8.222	
Cc1c(Cl)c(O)c(CCCCCCCC(=O)O)c(O)c1C=O [Compound 12]	40	7.398	
CC(=O)c1c(C)c(Cl)c(O)c(C/C=C(\C)CC/C=C(\C)C2CC(=O)C(C)(C)O2)c1O (stereo not shown) [Compound 14]	2.5	8.602	
CC(=O)c1c(C)c(Cl)c(O)c(C/C=C(\C)CC/C=C(\C)COC(=O)C(C)(C)C)c1O [Compound 15]	0.7	9.155	
CC(=O)c1c(C)c(Cl)c(O)c(C/C=C(\C)CCC=C(C)C)c1O [Compound 16]		9.824	IC50 [3, 6]: 0.15 nM
C/C(=C\Cc1c(O)c(Cl)c(C)c(/C=N\O)c1O)CC/C=C(\C)C1CC(=O)C(C)(C)O1 (stereo not shown) [Compound 17]	28	7.553	
COC(=O)c1c(C)c(Cl)c(O)c(C/C=C(\C)CCC=C(C)C)c1O [Compound 18]	45	7.347	
CCCCCCCCc1c(O)c(Cl)c(C)c([N+](=O)[O-])c1O [Compound 20]	0.45	9.347	
C/C(=C\Cc1c(O)c(Cl)cc(C=O)c1O)CC/C=C(\C)C1CC(=O)C(C)(C)O1 (stereo not shown) [Compound 25]	0.45	9.347	
CC(C)=CCC/C(C)=C/Cc1c(O)c(Cl)cc(C=O)c1O [Compound 26]	0.23	9.638	
CC(C)=CCC/C(C)=C/Cc1c(O)cc(C)c(C=O)c1O [Compound 27]	0.5	9.301	
CC(C)=CCC/C(C)=C/Cc1c(O)ccc(C=O)c1O [Compound 28]	38	7.420	
COc1c(Cl)c(C)c(C=O)c(O)c1C/C=C(\C)CC/C=C(\C)C1CC(=O)C(C)(C)O1 (stereo not shown) [Compound 29]	4	8.398	
CC(C)=CCC/C(C)=C/CC/C(C)=C/Cc1c(O)c2ccccc2oc1=O [Ferulenol]			IC50 [1, 5]: 53.1 nM
CCCCCCCCOC(=O)c1cc(O)c(O)c(O)c1 [Octyl gallate]			IC50 [1, 5]: 230 nM
CCCOC(=O)c1cc(O)c(O)c(O)c1 [Propyl gallate]			IC50 [1, 4]: 1400 nM; IC50 ([1]; external validation set, -log IC50 of values measured by respirometry, read-out: pIC50 Exp (converted)): 1400 nM; IC50 [3, 6]: 200 nM
